The record followed here is US4520026A, “Indolizine derivatives and use as cardiovascular agents” (S. A. Labaz N.V., priority 1982, dated 1985).

Broadly, the inhibition in vivo is the change of the read-out against control, counted positive when it falls.

In assay [1] the test system is blood-flow to the myocardium. The assay is described as follows: Effect on blood-flow to the myocardium, anaesthetized dogs, intravenous. The class given is in vivo, dog. The following applies: dose 10 mg/kg i.v., anaesthetized dog; for change in vivo at 10 mg/kg: Canis lupus familiaris, iv, read-out: Max. increase (blood-flow to the myocardium). On the procedure: It was undertaken on anaesthetized dogs which received the substance under study by intravenous route. The intensity of the maximum effect on blood-flow to the myocardium was expressed in percentage of the corresponding value before injection. The time required for the maximum effect to decrease by 50% represented the duration of the effect. This time was measured in minutes.

In assay [2] the test system is epinephrine-increased blood-pressure (anti-α effect). The assay is described as follows: Antiadrenergic effect: anti-α effect (reduction of epinephrine-increased blood-pressure). Format: in vivo. The note with it: dog. The protocol: (§1) The purpose of this test was to determine the capacity of the compounds under study to reduce epinephrine-increased blood-pressure (anti-α effect) and epinephrine-accelerated heart rate (anti-β effect) in the dog previously anaesthetized with pentobarbital and atropinized.
(§2) For each dog, the dose of epinephrine was first determined which provoked a reproductible increase by about 100 mm. Hg in the arterial pressure (between 5 and 10 μg/kg). After that, the dose of epinephrine so determined was administered followed by a dose by intravenous route of the compound to be studied. The percentage of reduction of the hypertension provoked by the compound under study in comparison with the hypertension previously obtained (about 100 mm. Hg) was then registered.
(§3) The percentage of reduction of the epinephrine-induced acceleration of heart-rate produced by the compound under study in comparison with the tachycardia previously measured (about 70 beats) was then registered. In both cases, the results were expressed as follows: […]
(§4) + for a <50%-reduction of the increase in pressure or cardiac frequency
(§5) ++ for a ≥50%-reduction of the increase in pressure or cardiac frequency
(§6) +++ for a subtotal reduction of the increase in pressure or cardiac frequency

The test system of assay [3] is epinephrine-accelerated heart rate (anti-β effect). The assay is described as follows: Antiadrenergic effect: anti-β effect (reduction of epinephrine-accelerated heart rate). The following applies: dog. The class given is in vivo. The protocol: as §1, §2, §3, §4, §5, §6
[4] abbreviates: Canis lupus familiaris, iv, dose 10 mg/kg i.v.
The mark [5] stands for this setting: Canis lupus familiaris, iv, dose 5 mg/kg i.v.
Setting [6] is: Canis lupus familiaris, iv, dose 7.5 mg/kg i.v.
Where [7] appears, read: Canis lupus familiaris, iv, dose 8.76 mg/kg i.v.

`CCCN(CCC)CCCOc1ccc(C(=O)c2c(-c3ccccc3)c(Br)c3ccccn23)cc1Br` [Br/Br/H/drawing 11/n-C3H7/3, 1-Bromo-2-phenyl-3-[4-(3-di-n-propylaminopropyl)-oxy-3-bromo-benzoyl]-indolizine]: in assay [1], the change in vivo at 10 mg/kg was 100% and the “Time required to decrease to 50% (duration of effect)” value is 20 min.

On to `CCCCN(CCCC)CCCOc1ccc(C(=O)c2c(-c3cccc(Br)c3)c(Br)c3ccccn23)cc1Br` [Br/Br/H/drawing 12/n-C4H9/3], for which, in assay [1], the change in vivo at 10 mg/kg stood at 150% and the “Time required to decrease to 50% (duration of effect)” value was 100 min.

Regarding `CCCc1c(Br)c2ccccn2c1C(=O)c1ccc(OCCCN(CCC)CCC)c(Br)c1` [Br/Br/H/n-C3H7/n-C3H7/3, 1-Bromo-2-n-propyl-3-[4-(3-di-n-propylaminopropyl)-oxy-3-bromo-benzoyl]-indolizine], in assay [1], the change in vivo at 10 mg/kg was 90% and the “Time required to decrease to 50% (duration of effect)” value turned out to be 20 min.

Consider `CCCN(CCC)CCCOc1c(Br)cc(C(=O)c2c(-c3ccccc3)c(Cl)c3ccccn23)cc1Br` [Cl/Br/Br/drawing 38/n-C3H7/3, 1-Chloro-2-phenyl-3-[4-(3-di-n-propylaminopropyl)-oxy-3,5-dibromo-benzoyl]-indolizine], for which the inhibition in vivo at 10 mg/kg in assay [2] (setting [4]) and in assay [3] (setting [4]) was below 50% throughout.

As to `CCCCN(CCCC)CCCOc1ccc(C(=O)c2c(CC)c(Cl)c3ccccn23)cc1Br` [Cl/Br/H/C2H5/n-C4H9/3, 1-Chloro-2-ethyl-3-[4-(3-di-n-butylaminopropyl)-oxy-3-bromo-benzoyl]-indolizine], the Anti-α effect result in assay [2] (dose 10 mg/kg i.v.) is given as “+++”. For the same molecule, the Anti-β effect entry in assay [3] (dose 10 mg/kg i.v.) is on record as “+++”.

Take `CCCN(CCC)CCCOc1c(Cl)cc(C(=O)c2c(CC)c(Cl)c3ccccn23)cc1Cl` [Cl/Cl/Cl/C2H5/n-C3H7/3, 1-Chloro-2-ethyl-3-[4-(3-di-n-propylaminopropyl)-oxy-3,5-dichloro-benzoyl]-indolizine]: the inhibition in vivo at 10 mg/kg in assay [2] (setting [4]) and in assay [3] (setting [4]) was above 50% in each case.

Consider `CCCCN(CCCC)CCCOc1c(Cl)cc(C(=O)c2c(-c3ccccc3)c(Cl)c3ccccn23)cc1Cl` [Cl/Cl/Cl/drawing 37/n-C4H9/3, 1-Chloro-2-phenyl-3-[4-(3-di-n-butylaminopropyl)-oxy-3,5-dichloro-benzoyl]-indolizine], for which the Anti-α effect result in assay [2] (dose 10 mg/kg i.v.) is on record as “+++”. Also, the inhibition in vivo at 10 mg/kg in assay [3] (setting [4]) is above 50%.

As to `CCCN(CCC)CCCOc1ccc(C(=O)c2c(-c3cccc(Br)c3)c(Cl)c3ccccn23)cc1Cl` [Cl/Cl/H/drawing 33/n-C3H7/3, 1-Chloro-2-(3-bromo-phenyl)-3-[4-(3-di-n-propylaminopropyl)-oxy-3-chloro-benzoyl]-indolizine], the Anti-α effect entry in assay [2] (dose 8 mg/kg i.v.) is given as “+++”. This molecule yielded an inhibition in vivo at 8 mg/kg in assay [3] (Canis lupus familiaris, iv, dose 8 mg/kg i.v.) above 50%.

As for `CCCCN(CCCC)CCCOc1ccc(C(=O)c2c(-c3ccc(Cl)cc3)c(Cl)c3ccccn23)cc1` [Cl/H/H/drawing 34/n-C4H9/3], the Anti-α effect result in assay [2] (dose 10 mg/kg i.v.) is reported as “+++”. In assay [3] (setting [4]), this molecule showed an inhibition in vivo at 10 mg/kg above 50%.

Turning to `CCCN(CCC)CCCOc1ccc(C(=O)c2c(-c3ccc(Cl)cc3)c(Cl)c3ccccn23)cc1` [Cl/H/H/drawing 35/n-C3H7/3], the inhibition in vivo at 5 mg/kg in assay [2] (setting [5]) is above 50%; in assay [3] (setting [5]), below 50%.

In the case of `CCCCN(CCCC)CCCOc1ccc(C(=O)c2c(-c3ccccc3)c(Cl)c3ccccn23)cc1` [Cl/H/H/drawing 36/n-C4H9/3], the Anti-α effect entry in assay [2] (dose 5 mg/kg i.v.) is reported as “+++”. Moreover, in assay [3] (dose 5 mg/kg i.v.), the Anti-β effect result was “+++”.

In the case of `CCCCN(CCCC)CCCOc1ccc(C(=O)c2c(CCC)c(Cl)c3ccccn23)cc1` [Cl/H/H/n-C3H7/n-C4H9/3, 1-Chloro-2-n-propyl-3-[4-(3-di-n-butylaminopropyl)-oxy-benzoyl]-indolizine], the Anti-α effect result in assay [2] (dose 7.5 mg/kg i.v.) is reported as “+++”. The Anti-β effect entry in assay [3] (dose 7.5 mg/kg i.v.) is on record as “+++”.

On to `CCCN(CCC)CCCOc1c(Br)cc(C(=O)c2c(-c3ccc(Br)cc3)cc3ccccn23)cc1Br` [H/Br/Br/drawing 41/n-C3H7/3], for which the Anti-α effect entry in assay [2] (dose 10 mg/kg i.v.) is “+++”. Besides, the Anti-β effect result in assay [3] (dose 10 mg/kg i.v.) is recorded as “+++”.

On to `CCCCN(CCCC)CCCOc1c(Br)cc(C(=O)c2c(-c3ccccc3)cc3ccccn23)cc1Br` [H/Br/Br/drawing 42/n-C4H9/3], for which the inhibition in vivo at 10 mg/kg in assay [2] (setting [4]) and in assay [3] (setting [4]) was above 50% throughout.

Turning to `CCCCN(CCCC)CCCOc1ccc(C(=O)c2c(CC)cc3ccccn23)cc1Br` [H/Br/H/C2H5/n-C4H9/3, 2-Ethyl-3-[4-(3-di-n-butylaminopropyl)-oxy-3-bromo-benzoyl]-indolizine], the Anti-α effect entry in assay [2] (dose 7.5 mg/kg i.v.) is recorded as “+++”. In addition, in assay [3] (setting [6]), the inhibition in vivo at 7.5 mg/kg was above 50%.

In the case of `CCCCN(CCCC)CCCOc1ccc(C(=O)c2c(-c3ccccc3)cc3ccccn23)cc1Br` [H/Br/H/drawing 24/n-C4H9/3], the Anti-α effect entry in assay [2] (dose 10 mg/kg i.v.) is on record as “+++”. For the same molecule, the inhibition in vivo at 10 mg/kg in assay [3] (setting [4]) was above 50%.

Take `CCCN(CCC)CCCOc1ccc(C(=O)c2c(C(C)C)cc3ccccn23)cc1Br` [H/Br/H/iso-C3H7/n-C3H7/3, 2-Isopropyl-3-[4-(3-di-n-propylaminopropyl)-oxy-3-bromo-benzoyl]-indolizine]: the Anti-α effect entry in assay [2] (dose 7.5 mg/kg i.v.) is on record as “+++”. Besides, the inhibition in vivo at 7.5 mg/kg in assay [3] (setting [6]) was above 50%.

`CCCCN(CCCC)CCCOc1ccc(C(=O)c2c(C(C)C)cc3ccccn23)cc1Br` [H/Br/H/iso-C3H7/n-C4H9/3]: the Anti-α effect result in assay [2] (dose 6 mg/kg i.v.) is given as “+++”. Besides, the inhibition in vivo at 6 mg/kg in assay [3] (Canis lupus familiaris, iv, dose 6 mg/kg i.v.) is above 50%.

As to `CCCCc1cc2ccccn2c1C(=O)c1ccc(OCCCN(CCC)CCC)c(Br)c1` [H/Br/H/n-C4H9/n-C3H7/3, 2-n-Butyl-3-[4-(3-di-n-propylaminopropyl)-oxy-3-bromo-benzoyl]-indolizine], in assay [2] (dose 5 mg/kg i.v.), the Anti-α effect result was “+++”. For the same molecule, the inhibition in vivo at 5 mg/kg in assay [3] (setting [5]) was above 50%.

Regarding `CCCCN(CCCC)CCCOc1ccc(C(=O)c2c(CC)cc3ccccn23)cc1C` [H/CH3/H/C2H5/n-C4H9/3, 2-Ethyl-3-[4-(3-di-n-butylaminopropyl)-oxy-3-methyl-benzoyl]-indolizine], in assay [2] (dose 10 mg/kg i.v.), the Anti-α effect entry is “+++”. In assay [3] (dose 10 mg/kg i.v.), the Anti-β effect entry is “+++”.

In the case of `CCCCN(CCCC)CCCOc1ccc(C(=O)c2c(C)cc3ccccn23)cc1C` [H/CH3/H/CH3/n-C4H9/3, 2-Methyl-3-[4-(3-di-n-butylaminopropyl)-oxy-3-methyl-benzoyl]-indolizine], the inhibition in vivo at 8.76 mg/kg in assay [2] (setting [7]) and in assay [3] (setting [7]) was above 50% throughout.

In the case of `CCCCN(CCCC)CCCOc1ccc(C(=O)c2c(C(C)C)cc3ccccn23)cc1C` [H/CH3/H/iso-C3H7/n-C4H9/3, 2-Isopropyl-3-[4-(3-di-n-butylaminopropyl)-oxy-3-methyl-benzoyl]-indolizine], the Anti-α effect result in assay [2] (dose 7.5 mg/kg i.v.) is on record as “+++”. In assay [3] (dose 7.5 mg/kg i.v.), the Anti-β effect entry is listed as “+++”.

Consider `CCCCc1cc2ccccn2c1C(=O)c1ccc(OCCCN(CCCC)CCCC)c(C)c1` [H/CH3/H/n-C4H9/n-C4H9/3, 2-n-Butyl-3-[4-(3-di-n-butylaminopropyl)-oxy-3-methyl-benzoyl]-indolizine], for which the inhibition in vivo at 10 mg/kg in assay [2] (setting [4]) and in assay [3] (setting [4]) was above 50% in each case.

Regarding `CCCN(CCC)CCCOc1ccc(C(=O)c2c(CC)cc3ccccn23)cc1Cl` [H/Cl/H/C2H5/n-C3H7/3, 2-Ethyl-3-[4-(3-di-n-propylaminopropyl)-oxy-3-chloro-benzoyl]-indolizine], the inhibition in vivo at 10 mg/kg in assay [2] (setting [4]) and in assay [3] (setting [4]) was above 50% each time.

Turning to `CCCCN(CCCC)CCCOc1ccc(C(=O)c2c(-c3cccc(Br)c3)cc3ccccn23)cc1Cl` [H/Cl/H/drawing 25/n-C4H9/3], the inhibition in vivo at 10 mg/kg in assay [2] (setting [4]) and in assay [3] (setting [4]) was above 50% in each case.

For `CCCCN(CCCC)CCCOc1ccc(C(=O)c2c(-c3ccc(Br)cc3)cc3ccccn23)cc1Cl` [H/Cl/H/drawing 31/n-C4H9/3], the inhibition in vivo at 10 mg/kg in assay [2] (setting [4]) was above 50%; in assay [3] (setting [4]), below 50%.

With `CCCCN(CCCC)CCCOc1ccc(C(=O)c2c(CC)cc3ccccn23)cc1OC` [H/OCH3/H/C2H5/n-C4H9/3, 2-Ethyl-3-[4-(3-di-n-butylaminopropyl)-oxy-3-methoxy-benzoyl]-indolizine], the Anti-α effect entry in assay [2] (dose 10 mg/kg i.v.) is reported as “+++”. For the same molecule, the inhibition in vivo at 10 mg/kg in assay [3] (setting [4]) was above 50%.

Regarding `CCCN(CCC)CCCOc1ccc(C(=O)c2c(-c3ccccc3)c(OC)c3ccccn23)cc1Cl` [OCH3/Cl/H/drawing 43/n-C3H7/3, 1-Methoxy-2-phenyl-3-[4-(3-di-n-propylaminopropyl)-oxy-3-chloro-benzoyl]-indolizine], the Anti-α effect entry in assay [2] (dose 10 mg/kg i.v.) is on record as “+++”. Further, the Anti-β effect result in assay [3] (dose 10 mg/kg i.v.) was “+++”.

Regarding `CCCN(CCC)CCCOc1ccc(C(=O)c2c(-c3ccccc3)c(OC)c3ccccn23)cc1OC` [OCH3/OCH3/H/drawing 44/n-C3H7/3], the inhibition in vivo at 10 mg/kg in assay [2] (setting [4]) and in assay [3] (setting [4]) was above 50% each time.
